Experimental findings from patent publication US20150105252A1, “SUBSTITUTED PYRAZOLES AS HERBICIDES” (E I DU PONT DE NEMOURS AND COMPANY, priority 2013, published 2015) are described below.

Each structure is given as a SMILES string.

In assay [1] the test system is velvetleaf. The assay is described as follows: Test A preemergence. It is filed as in vivo, Abutilon theophrasti. The settings on record: 0 to 100 scale. In a few lines: (§1)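 After sowing in a sand–loam mix, pots received compound preemergence by directed soil spray, or postemergence once plants reached the one- to two-leaf stage (2–10 cm). Formulation contained surfactant in a non-phytotoxic solvent. Injury was scored visually after ~10 greenhouse days, 0–100 scale.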

The subject of assay [2] is barnyardgrass. The assay is described as follows: Test A preemergence. In kind it is in vivo, Echinochloa crus-galli. Particulars: 0 to 100 scale. In a few lines: as §1
In assay [3] the test system is blackgrass. The assay is described as follows: Test C postemergence. In kind it is in vivo, Alopecurus myosuroides. The settings on record: for Blackgrass plant response rating: scale 0 to 100. The text has this:
(§2) Seeds of plant species selected from blackgrass (Alopecurus myosuroides), ryegrass, Italian (Italian ryegrass, Lolium multiflorum), wheat (winter wheat, Triticum aestivum), galium (catchweed bedstraw, Galium aparine), corn (Zea mays), crabgrass, large (large crabgrass, Digitaria sanguinalis), foxtail, giant (giant foxtail, Setaria faberii), johnsongrass (Sorghum halepense), lambsquarters (Chenopodium album), morningglory (Ipomoea coccinea), nutsedge, yellow (yellow nutsedge, Cyperus esculentus), pigweed (redroot pigweed, Amaranthus retroflexus), ragweed (common ragweed, Ambrosia elation), soybean (Glycine max), barnyardgrass (Echinochloa crus-galli), oilseed rape (Brassica napus), waterhemp (common waterhemp, Amaranthus rudis), oat, wild (wild oat, Avena fatua), kochia (Kochia scoparia), Surinam grass (Brachiaria decumbens), foxtail, green (green foxtail, Setaria viridis), goosegrass (Eleusine indica), bromegrass, downy (downy bromegrass, Bromus tectorum), nightshade (eastern black nightshade, Solanum ptycanthum), cocklebur (common cocklebur, Xanthium strumarium), cupgrass, woolly (woolly cupgrass, Eriochloa villosa), bermudagrass (Cynodon dactylon), sunflower, (common oilseed sunflower, Helianthus annuus), Russian thistle (Salsola kali), and velvetleaf (Abutilon theophrasti) were planted into a blend of loam soil and sand and treated preemergence with test chemicals formulated in a non-phytotoxic solvent mixture which included a surfactant.
(§3) At the same time, plants selected from these crop and weed species and also chickweed (common chickweed, Stellaria media), canarygrass (littleseed canarygrass, Phalaris minor), and deadnettle (henbit deadnettle, Lamium amplexicaule), were planted in pots containing Redi-Earth® planting medium (Scotts Company, 14111 Scottslawn Road, Marysville, Ohio 43041) comprising spaghnum peat moss, vermiculite, wetting agent and starter nutrients and treated with postemergence applications of test chemicals formulated in the same manner. Plants ranged in height from 2 to 18 cm (1- to 4-leaf stage) for postemergence treatments. Treated plants and controls were maintained in a greenhouse for 13 to 15 days, after which time all species were compared to controls and visually evaluated. Plant response ratings, summarized in Table C, are based on a scale of 0 to 100 where 0 is no effect and 100 is complete control. A dash (-) response means no test result.

For assay [4], the system named is pigweed. The assay is described as follows: Test A preemergence. In kind it is in vivo, Amaranthus retroflexus. Particulars: 0 to 100 scale. Put shortly:
as §1

Assay [5] relates to wheat. The assay is described as follows: Test A postemergence. In kind it is in vivo, Triticum aestivum. Put shortly:
as §1

Assay [6] has as its system foxtail, giant. Kind of assay: Test A preemergence. In kind it is in vivo, Setaria faberii. Particulars: 0 to 100 scale. Put shortly:
as §1

The subject of assay [7] is corn. The assay is described as follows: Test A preemergence. It is filed as in vivo, Zea mays. The settings on record: 0 to 100 scale. In a few lines:
as §1

The test system of assay [8] is galium. The assay is described as follows: Test C postemergence. The settings on record: for Galium plant response rating: scale 0 to 100. It is filed as in vivo, Galium aparine.
Text: as §2, §3

In assay [9] the test system is corn. The assay is described as follows: Test C preemergence. In kind it is in vivo, Zea mays. Particulars: for Plant response rating (scale of 0 to 100), Corn: Preemergence, 250 g ai/ha; for Corn plant response rating / Plant response rating, Corn: preemergence; for Plant response rating, Corn: 62 g ai/ha, scale 0 to 100, 0 = no effect, 100 = complete control.
Text: as §2, §3

The subject of assay [10] is morningglory. Kind of assay: Test C preemergence. Particulars: for Plant response rating (scale of 0 to 100), Morningglory: Preemergence, 250 g ai/ha; for Morningglory plant response rating / Plant response rating, Morningglory: preemergence; for Plant response rating, Morningglory: 62 g ai/ha, scale 0 to 100, 0 = no effect, 100 = complete control. In kind it is in vivo, Ipomoea coccinea.
Text: as §2, §3

The subject of assay [11] is galium. The assay is described as follows: Test C preemergence. The settings on record: for Plant response rating (scale of 0 to 100), Galium: Preemergence, 250 g ai/ha; for Galium plant response rating / Plant response rating, Galium: preemergence; for Plant response rating, Galium: 62 g ai/ha, scale 0 to 100, 0 = no effect, 100 = complete control. It is filed as in vivo, Galium aparine.
Text: as §2, §3

Where [12] appears, read: Preemergence, 1000 g ai/ha, 0 no effect, 100 complete control.
Setting [13] is: postemergence, 250 g ai/ha, scale 0 to 100 (0 no effect, 100 complete control).
Setting [14] is: postemergence, 62 g ai/ha, scale 0 to 100, 0 no effect, 100 complete control.
The mark [15] stands for this setting: postemergence, 125 g ai/ha, scale 0 to 100, 0 no effect, 100 complete control.
Where [16] appears, read: Postemergence, 1000 g ai/ha, visual rating after approx. 10 days, 0 to 100 scale (0 no effect, 100 complete control).
Where [17] appears, read: Preemergence, 500 g ai/ha, 0 no effect, 100 complete control.
The mark [18] stands for this setting: preemergence, 125 g ai/ha, visual injury, approx. 10 days.
Setting [19] is: 31 g ai/ha, scale 0 to 100 (0 no effect, 100 complete control), 13 to 15 days.
The mark [20] stands for this setting: 125 g ai/ha, scale 0 to 100, 0 is no effect, 100 is complete control.
Setting [21] is: Postemergence, 500 g ai/ha, visual rating after approx. 10 days, 0 to 100 scale (0 no effect, 100 complete control).
Setting [22] is: postemergence, 125 g ai/ha, about 10 days, visual rating on 0 to 100 scale (0 no effect, 100 complete control).

Consider `CCCNC(=O)c1cc(CC)n(Cc2cccc(OC(F)(F)F)c2)n1` [Compound 27], for which, in assay [1] (setting [12]), the “Velvetleaf plant response rating” value is 30. The “Barnyardgrass plant response rating” value in assay [2] (setting [12]) amounted to 50. Moreover, the “Blackgrass plant response rating” value in assay [3] (Postemergence, 31 g ai/ha) is 10. The entries for the “Plant response rating, Blackgrass” value in assay [3] (setting [13]), in assay [3] (setting [14]) and in [3] (setting [15]) were 20, 15 and 15, respectively. In assay [4] (setting [12]), the “Pigweed plant response rating” value worked out at 90. Also, in assay [5] (setting [16]), the “Wheat plant response rating” value is 40. The “Foxtail, Giant plant response rating” value in assay [6] (setting [12]) is recorded as 90. For the same molecule, the “Corn plant response rating” value in [7] (setting [12]) came to 30.
`CCONC(=O)c1cc(CC)n(Cc2cccc(OC(F)(F)F)c2)n1` [Compound 72]: the results for the “Velvetleaf plant response rating” value in assay [1] (setting [17]) and in assay [1] (setting [18]) were 100 and 70, respectively. Further, the “Galium plant response rating” value in [8] (Postemergence, 31 g ai/ha) amounted to 45; in [8] (postemergence, 62 g ai/ha), 70; in assay [11] (setting [19]) it was 70; in assay [11] (setting [20]), 100. Further, the figures for the “Plant response rating, Galium” value in assay [8] (setting [13]), in [8] (setting [15]) and in assay [11] (13 to 15 days) were 80, 70 and 98, respectively. In addition, the “Barnyardgrass plant response rating” value is 100 in [2] (setting [17]) and 90 in assay [2] (setting [18]). In addition, the “Blackgrass plant response rating” value in [3] (Postemergence, 31 g ai/ha) worked out at 5; in assay [3] (postemergence, 62 g ai/ha), 10. The “Plant response rating, Blackgrass” value in [3] (setting [13]) and in assay [3] (setting [15]) was 40 each time. Further, the “Pigweed plant response rating” value in assay [4] (setting [17]) and in assay [4] (setting [18]) was 100 throughout. Besides, in assay [9], the “Plant response rating (scale of 0 to 100), Corn” value was 75. Besides, the “Corn plant response rating” value turned out to be 30 in assay [9] (setting [19]), 60 in assay [9] (setting [20]), 70 in [7] (setting [17]) and 50 in assay [7] (setting [18]). Also, the “Plant response rating, Corn” value in [9] (13 to 15 days) was 45. Besides, the “Wheat plant response rating” value in assay [5] (setting [21]) was 80; in [5] (setting [22]) it was 70. For the same molecule, the results for the “Foxtail, Giant plant response rating” value in [6] (setting [17]) and in assay [6] (setting [18]) were 100 and 70, respectively. Besides, in assay [10], the “Plant response rating (scale of 0 to 100), Morningglory” value was 85. The “Morningglory plant response rating” value is reported as 15 in [10] (setting [19]) and 85 in assay [10] (setting [20]). Besides, the “Plant response rating, Morningglory” value in assay [10] (13 to 15 days) worked out at 65. Moreover, the “Plant response rating (scale of 0 to 100), Galium” value in assay [11] was determined as 100.
Regarding `CCc1cc(C(=O)NCC(F)(F)F)nn1Cc1cccc(OC(F)(F)F)c1` [Compound 20], the “Velvetleaf plant response rating” value in [1] (setting [12]) is listed as 70. Moreover, in assay [2] (setting [12]), the “Barnyardgrass plant response rating” value is reported as 80. Further, in assay [3] (Postemergence, 31 g ai/ha), the “Blackgrass plant response rating” value stood at 5. Also, the “Plant response rating, Blackgrass” value was 20 in assay [3] (setting [13]), 5 in [3] (setting [14]) and 15 in [3] (setting [15]). Also, in [4] (setting [12]), the “Pigweed plant response rating” value amounted to 100. Moreover, the “Wheat plant response rating” value in assay [5] (setting [16]) worked out at 40. The “Foxtail, Giant plant response rating” value in assay [6] (setting [12]) is recorded as 100. In [7] (setting [12]), the “Corn plant response rating” value is listed as 20.
For `CCc1cc(C(=O)NOC(C)C)nn1Cc1cccc(OC(F)(F)F)c1` [Compound 70], the “Velvetleaf plant response rating” value was 80 in [1] (setting [17]) and 40 in assay [1] (setting [18]). Besides, the “Galium plant response rating” value in [8] (Postemergence, 31 g ai/ha) is listed as 70; in [11] (setting [19]) it was 65; in assay [11] (setting [20]), 98. Further, the “Plant response rating, Galium” value in [8] (setting [13]) is on record as 90; in assay [8] (setting [14]), 70; in [8] (setting [15]), 75; in assay [11] (13 to 15 days) it was 95. The “Barnyardgrass plant response rating” value in assay [2] (setting [17]) came out at 100; in assay [2] (setting [18]), 80. For the same molecule, the “Blackgrass plant response rating” value in assay [3] (Postemergence, 31 g ai/ha) came out at 0. The “Plant response rating, Blackgrass” value in assay [3] (setting [13]) amounted to 25; in assay [3] (setting [14]) it was 5. The “Pigweed plant response rating” value in assay [4] (setting [17]) and in [4] (setting [18]) was 100 each time. The “Plant response rating (scale of 0 to 100), Corn” value in assay [9] was found to be 85. The “Corn plant response rating” value came to 40 in assay [9] (setting [19]), 70 in [9] (setting [20]), 80 in [7] (setting [17]) and 50 in assay [7] (setting [18]). The “Plant response rating, Corn” value in assay [9] (13 to 15 days) stood at 60. Moreover, the “Wheat plant response rating” value in assay [5] (setting [21]) and in [5] (setting [22]) was 70 in each case. The “Foxtail, Giant plant response rating” value was determined as 100 in [6] (setting [17]) and 90 in assay [6] (setting [18]). Moreover, in assay [10], the “Plant response rating (scale of 0 to 100), Morningglory” value came out at 95. In addition, the “Morningglory plant response rating” value is 0 in assay [10] (setting [19]) and 75 in assay [10] (setting [20]). In [10] (13 to 15 days), the “Plant response rating, Morningglory” value was found to be 25. For the same molecule, the “Plant response rating (scale of 0 to 100), Galium” value in assay [11] is recorded as 98.
